Reference: article PMC5522181 (ACS chemical neuroscience, 2017)
Like-named read-outs stand apart in the source and are kept apart here.

Legend:
[1] = Pharmacokinetics; settings: both, rhesus monkey, sc
[2] = in vitro; settings: plasma, pH 7.4
[3] = Plasma protein binding by equilibrium dialysis
[4] = molecular target: human Pgp (MDCK-MDR1) (Homo sapiens, UniProt P08183); test: Bidirectional transport across MDR1-MDCK cell monolayers; format: in vitro ADME; settings: CNO 5 μM
[5] = CNO 10 mg/kg IM, monkeys; cited from earlier work
[6] = molecular target: T1, BCRP (MDCK-BCRP) (Homo sapiens, UniProt Q9UNQ0); test: Bidirectional transport across BCRP-MDCK cell monolayers; format: in vitro ADME; settings: MDCK-BCRP monolayer; CNO 5 μM; 120 min; no inhibitor
T1 sequence (Q9UNQ0 1-655): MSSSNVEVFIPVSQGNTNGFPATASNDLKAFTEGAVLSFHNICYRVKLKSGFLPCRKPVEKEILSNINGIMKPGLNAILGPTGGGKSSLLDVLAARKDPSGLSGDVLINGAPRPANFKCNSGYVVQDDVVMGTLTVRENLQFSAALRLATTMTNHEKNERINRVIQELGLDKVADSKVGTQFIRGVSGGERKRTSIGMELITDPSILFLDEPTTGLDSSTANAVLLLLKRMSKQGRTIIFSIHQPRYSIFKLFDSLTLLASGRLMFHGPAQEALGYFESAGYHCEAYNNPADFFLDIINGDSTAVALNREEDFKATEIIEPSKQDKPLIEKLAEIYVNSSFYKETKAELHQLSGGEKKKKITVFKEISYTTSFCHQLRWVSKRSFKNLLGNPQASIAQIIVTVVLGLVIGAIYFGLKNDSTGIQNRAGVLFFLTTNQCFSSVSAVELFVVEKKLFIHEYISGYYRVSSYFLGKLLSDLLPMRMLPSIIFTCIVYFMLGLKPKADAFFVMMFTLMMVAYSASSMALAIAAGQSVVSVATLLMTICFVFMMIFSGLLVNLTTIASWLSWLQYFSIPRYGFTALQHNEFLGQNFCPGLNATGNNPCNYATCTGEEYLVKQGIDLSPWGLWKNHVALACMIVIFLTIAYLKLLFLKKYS

[7] = rhesus monkey, in vivo, sc
[8] = MDCK-Pgp monolayer, 120 min, no inhibitor

Sequence of human Pgp (MDCK-MDR1) (P08183 whole entry): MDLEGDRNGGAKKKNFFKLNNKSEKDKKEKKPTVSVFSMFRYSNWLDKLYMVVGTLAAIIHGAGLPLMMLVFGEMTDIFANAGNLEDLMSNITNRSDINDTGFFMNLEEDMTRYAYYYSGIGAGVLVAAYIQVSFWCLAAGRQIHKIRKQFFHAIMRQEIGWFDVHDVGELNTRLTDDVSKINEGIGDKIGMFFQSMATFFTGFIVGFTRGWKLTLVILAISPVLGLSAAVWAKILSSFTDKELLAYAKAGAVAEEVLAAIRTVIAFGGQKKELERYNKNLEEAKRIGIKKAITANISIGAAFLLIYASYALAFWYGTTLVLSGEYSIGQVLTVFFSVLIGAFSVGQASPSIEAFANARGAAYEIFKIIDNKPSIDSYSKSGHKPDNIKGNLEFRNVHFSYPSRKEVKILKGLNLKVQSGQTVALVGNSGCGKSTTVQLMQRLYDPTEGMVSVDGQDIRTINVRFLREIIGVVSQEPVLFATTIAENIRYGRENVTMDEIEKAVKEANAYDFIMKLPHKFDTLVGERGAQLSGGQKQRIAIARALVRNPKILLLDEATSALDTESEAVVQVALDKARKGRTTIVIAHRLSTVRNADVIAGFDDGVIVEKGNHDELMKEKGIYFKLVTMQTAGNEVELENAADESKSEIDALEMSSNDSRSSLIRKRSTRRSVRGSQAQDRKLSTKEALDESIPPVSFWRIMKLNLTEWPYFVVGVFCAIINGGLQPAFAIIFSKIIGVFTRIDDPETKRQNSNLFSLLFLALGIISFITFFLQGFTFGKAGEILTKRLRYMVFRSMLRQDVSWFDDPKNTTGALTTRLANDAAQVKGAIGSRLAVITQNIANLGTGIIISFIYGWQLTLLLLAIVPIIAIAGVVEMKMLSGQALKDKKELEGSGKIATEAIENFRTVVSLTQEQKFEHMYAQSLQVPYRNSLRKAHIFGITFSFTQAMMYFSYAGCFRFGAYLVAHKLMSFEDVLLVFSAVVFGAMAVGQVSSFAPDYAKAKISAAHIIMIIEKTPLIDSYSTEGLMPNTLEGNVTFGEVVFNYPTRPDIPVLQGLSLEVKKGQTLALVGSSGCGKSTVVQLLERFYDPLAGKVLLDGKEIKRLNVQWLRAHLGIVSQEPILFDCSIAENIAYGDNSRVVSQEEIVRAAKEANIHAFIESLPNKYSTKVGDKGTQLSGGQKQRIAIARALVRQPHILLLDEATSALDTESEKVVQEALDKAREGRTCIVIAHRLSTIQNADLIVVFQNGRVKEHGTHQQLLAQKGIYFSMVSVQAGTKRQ

Compound: Clc1ccc2c(c1)N=C(N1CCNCC1)c1ccccc1N2 [N-desmethylclozapine]
- Tmax ([1]; CSF, 3 mg/kg): 24 h
- Tmax ([1]; CSF, 10 mg/kg): 24 h
- Tmax ([1]; plasma, 3 mg/kg): 24 h
- fraction unbound at 4 h, 1 μM [2]: 0.11

Compound: CN1CCN(C2=Nc3cc(Cl)ccc3Nc3ccccc32)CC1 [clozapine]
- fraction unbound at 4 h, 1 μM ([3]; pH 7.4): 0.05
- Tmax ([1]; CSF, 3 mg/kg): 2.67 h
- Tmax ([1]; CSF, 10 mg/kg): 2.67 h
- Tmax ([1]; plasma, 3 mg/kg): 2.67 h

Compound: clozapine-N-oxide [CNO]
- A-B permeability (Papp) [4, 8]: 0.05 ×10⁻⁶ cm/s
- B-A permeability (Papp) [4, 8]: 1 ×10⁻⁶ cm/s
- Pgp substrate assessment ([4]; MDCK-Pgp): substrate of Pgp
- fu (fraction unbound), PPB ([3]; 1 μM, 4 h at 37 °C, equilibrium dialysis): 0.43
- Tmax in CSF [5]: 1 h
- average concentration in CSF [5]: 9 ng/mL
- A-B permeability (Papp) [6]: 0.07 ×10⁻⁶ cm/s
- B-A permeability (Papp) [6]: 0.21 ×10⁻⁶ cm/s
- AUC at 3 mg/kg as share of AUC at 10 mg/kg [7]: approximately 65%
- AUC ([7]; 3 mg/kg): 519 ng·h/mL
- AUC ([7]; 10 mg/kg): 795 ng·h/mL
- Cmax ([7]; 10 mg/kg): 7 µM
- Tmax ([7]; 10 mg/kg): 90 min ^b
